The source of these data is ChEMBL document CHEMBL3507680, “University of Dundee, Gates Library screen for HepG2 cell viability”.

This series can be described thus: Human HepG2 cell viability assay in 384 well format. Format: toxicity, cell-based. Also on record: dose 125 nL, time 70.5 hour; cytotoxicity at 70.5 h: concentration not given beside the values. To be noted: HepG2 cells, read-out: Inhibition.
As to `CS(=O)(=O)NCCC1CCCCN1C(=O)NCCc1ccccc1` (centres undefined), the cytotoxicity at 70.5 h was found to be 17.9%.

Turning to `CC(CNC(=O)c1cc(Cl)ccc1I)N1CCCC1` (centres undefined), the cytotoxicity at 70.5 h is -17.1%.

With `CCOc1cccc(C(C)NC(=O)N2CCC3(CC2)OCCO3)c1` (centres undefined), the cytotoxicity at 70.5 h is -13.2%.

Take `COc1cccc(C(=O)NS(=O)(=O)c2cncc(Br)c2)c1OC`: the cytotoxicity at 70.5 h is -12.4%.

Consider `CCC(O)CN1CCN(C(=O)CN(C)c2ccc(Cl)cn2)CC1` (centres undefined), for which the cytotoxicity at 70.5 h is -5.06%.

For the compound `Cc1nnc(C(C)NCC2(c3ccc(Cl)cc3)CCOCC2)o1` (centres undefined), the cytotoxicity at 70.5 h is -18.1%.

On to `Cc1cc(C)c2c(OCC(=O)NCC(O)C(F)(F)F)nn(C)c2n1` (centres undefined), for which the cytotoxicity at 70.5 h was -15.2%.

Take `Cc1noc(C)c1CN(C)C(=O)Nc1cnn(CC2CCCO2)c1` (centres undefined): the cytotoxicity at 70.5 h was -16.8%.

For `CCc1cnc(CN(C)C(=O)Nc2cnn(CC3CCCO3)c2)s1` (centres undefined), the cytotoxicity at 70.5 h was -4.76%.

For the compound `CCS(=O)(=O)CCSc1cccc(C#N)c1`, the cytotoxicity at 70.5 h is -23.7%.

On to `CCCS(=O)(=O)CCSc1cccc(C#N)c1`, for which the cytotoxicity at 70.5 h was -11.2%.

`Cn1cc(Br)c(=O)c(NS(=O)(=O)c2ccc(Cl)cc2)c1`: the cytotoxicity at 70.5 h is -18.4%.

Take `CC(CNC(=O)c1ccc(Cl)cc1F)N1CCCC1` (centres undefined): the cytotoxicity at 70.5 h was -16.4%.

Regarding `CC(O)CN1CCN(C(=O)CN(C)c2ccc(C#N)cn2)CC1` (centres undefined), the cytotoxicity at 70.5 h was 10.3%.

For `Cc1cccc(C2(CNC(C)c3nnc(C)o3)CCCC2)c1` (centres undefined), the cytotoxicity at 70.5 h was -6.44%.

For `Cc1cc(CN2CCN(C(=O)CCc3ccco3)CC2)on1`, the cytotoxicity at 70.5 h was -9.48%.

As to `CC(=O)N1CCCN(C(=O)CN(C)c2ccc(Cl)cn2)CC1`, the cytotoxicity at 70.5 h worked out at 10.7%.

Regarding `Cn1ccnc1CNc1c(F)cccc1-n1cccn1`, the cytotoxicity at 70.5 h is -7.82%.

Turning to `COc1ccc(CCNC(=O)Nc2cc(C)nn2C)cc1`, the cytotoxicity at 70.5 h is -2.92%.

On to `O=C(CCc1ccccc1Br)NCC(=O)NCc1ccccc1`, for which the cytotoxicity at 70.5 h is -7.06%.

Regarding `COc1ccc(CN(C)C(=O)NC(C)c2nncn2C)cc1F` (centres undefined), the cytotoxicity at 70.5 h is -6.21%.

With `CCN(CC)c1ccc(NC(=O)NC(C)Cn2cccn2)cn1` (centres undefined), the cytotoxicity at 70.5 h was -6.74%.

For `O=C(c1ccn(-c2cccc(F)c2)n1)N1CCN(CC2CC2)CC1`, the cytotoxicity at 70.5 h is -7.87%.

With `Cc1cc(NC(=O)NCC(c2ccsc2)N(C)C)n(C)n1` (centres undefined), the cytotoxicity at 70.5 h was -10.2%.

Take `CC(NC(=O)N(C)Cc1cnn(C)c1)c1nncn1C` (centres undefined): the cytotoxicity at 70.5 h was -2.09%.

For the compound `Cc1nnc2n1CCN(Cc1csc(-c3cnn(C)c3)n1)C2`, the cytotoxicity at 70.5 h was -3.97%.

On to `CCc1nnc2n1CCN(Cc1csc(-c3ncccn3)n1)C2`, for which the cytotoxicity at 70.5 h was -9.92%.

As to `COc1ccc(CNC(=O)Nc2ccc(CN3CCOC3=O)cc2)cc1`, the cytotoxicity at 70.5 h is -0.36%.

Turning to `COCCNC(=O)Nc1ccc(CN2CCOC2=O)cc1`, the cytotoxicity at 70.5 h is -7%.

For `Cn1nc2c(cc1=O)CN(CC(=O)Nc1cc(C(C)(C)C)no1)CC2`, the cytotoxicity at 70.5 h worked out at 13.4%.

Consider `CCCn1nc2c(cc1=O)CN(CC(=O)Nc1cc(C)no1)CC2`, for which the cytotoxicity at 70.5 h was -7.27%.

As for `Cc1ccc(S(=O)(=O)NC2CCC(=O)NC2)cc1Br` (centres undefined), the cytotoxicity at 70.5 h is -4.2%.

On to `Cn1cc(-c2csc(N3CCN(c4nccs4)CC3)n2)cn1`, for which the cytotoxicity at 70.5 h was -0.763%.

In the case of `O=C(CSc1ccc2c(c1)OCCO2)NS(=O)(=O)c1cc(F)ccc1F`, the cytotoxicity at 70.5 h is -7.36%.

As for `COCCCNC(=O)CN(C)Cc1ccc(F)cc1Cl`, the cytotoxicity at 70.5 h amounted to 9.16%.

Take `CC(NC(=O)N(C)Cc1cccc(OC(F)F)c1)c1nncn1C` (centres undefined): the cytotoxicity at 70.5 h is -5.84%.

Take `Cc1nc(C2CCCN(C(=O)c3sc(C)nc3C)C2)no1` (centres undefined): the cytotoxicity at 70.5 h was 37.2%.

On to `Cc1nc(C2CCCN(C(=O)c3cnc(C)s3)C2)no1` (centres undefined), for which the cytotoxicity at 70.5 h came to 10.2%.

Take `O=C(CN1CCc2ccccc21)NCc1ccc(Cl)cc1`: the cytotoxicity at 70.5 h was found to be 3.34%.

With `COc1ccc(NC(C)C(=O)N2CCN(c3ccccc3)CC2)cn1` (centres undefined), the cytotoxicity at 70.5 h was -3.71%.

As for `CCCC(=O)N1CCC(C(=O)NCCN2CCC(C)CC2)CC1`, the cytotoxicity at 70.5 h is -1.92%.

For the compound `CCCN(C)C(=O)c1cc(S(=O)(=O)NCC)ccc1C`, the cytotoxicity at 70.5 h is -1.03%.

On to `CC1CCN(CCNC(=O)C2CCN(C(=O)C3CC3)CC2)CC1`, for which the cytotoxicity at 70.5 h is -3.28%.

Regarding `CS(=O)(=O)Nc1ccc(CNC(=O)CN2CCc3ccccc32)cc1`, the cytotoxicity at 70.5 h is 7.44%.

For the compound `CN(C)CCN(Cc1ccc(C(F)(F)F)cc1)C(=O)c1cc[nH]n1`, the cytotoxicity at 70.5 h is 16.2%.

Regarding `CN(C)CCN(Cc1ccc(Cl)cc1)C(=O)c1ccncc1`, the cytotoxicity at 70.5 h was -1.83%.

For `CCCN1CCN(S(=O)(=O)c2ncn(C)c2Cl)CC1`, the cytotoxicity at 70.5 h was -4.77%.

On to `Cc1ccc(NC(=O)NC(C)(C)c2noc(C)n2)cc1`, for which the cytotoxicity at 70.5 h is 7.68%.

For `COCc1ccc(CNC(=O)CN2CCc3ccccc32)cc1`, the cytotoxicity at 70.5 h was 1.24%.

For `NS(=O)(=O)N1CCc2ccc(NC(=O)CCc3ccncc3)cc21`, the cytotoxicity at 70.5 h was found to be 22.2%.

For `NS(=O)(=O)N1CCc2ccc(NC(=O)CC(F)(F)F)cc21`, the cytotoxicity at 70.5 h was -1.59%.

With `Cc1nc(C(C)(C)NC(=O)Nc2ccncc2)no1`, the cytotoxicity at 70.5 h is -0.296%.

For the compound `CC(C#N)CSc1ccccc1NCC(=O)NC1CCCCC1` (centres undefined), the cytotoxicity at 70.5 h was -1.2%.

As to `COCCN(Cc1ccc(F)cc1Cl)C(=O)c1cc(C)n[nH]1`, the cytotoxicity at 70.5 h is -0.839%.

For the compound `Cc1cc(NC(C)C(=O)N2CCN(c3ncccn3)CC2)ccc1F` (centres undefined), the cytotoxicity at 70.5 h is 9.5%.

As to `Cc1ccc(OCC(=O)Nc2ncccc2OC(F)F)cc1`, the cytotoxicity at 70.5 h was -1.62%.

Turning to `CC(C)NC(=O)CCNC(=O)c1cc(Br)cn1C(C)C`, the cytotoxicity at 70.5 h was determined as 1.21%.

As for `COc1ccccc1-c1noc(CNc2ccc(F)cc2OCCO)n1`, the cytotoxicity at 70.5 h was determined as 9.78%.

For the compound `N#Cc1cccc(OCC(=O)N(Cc2ccsc2)C2CC2)c1`, the cytotoxicity at 70.5 h was -12%.

Turning to `CCOc1ccc(OCC)c(NCc2cc(C)on2)c1`, the cytotoxicity at 70.5 h worked out at 8.35%.

As to `Cc1nnc2n1CC(CNc1ncnc3ccccc13)CC2` (centres undefined), the cytotoxicity at 70.5 h was -11.6%.

For `CCc1[nH]n(C)c(=N)c1-c1ccc2c(c1)OCO2`, the cytotoxicity at 70.5 h is -6.78%.

As to `CCNC(=O)N1CCC(NC(=O)NCCCc2cccc(F)c2)C1` (centres undefined), the cytotoxicity at 70.5 h is -4.92%.

Consider `Cc1ccc2cc(C(=O)N3CCS(=O)(=O)CC3)[nH]c2c1`, for which the cytotoxicity at 70.5 h was -12.3%.

Regarding `OCc1cc2ccccc2nc1NCC1CC1`, the cytotoxicity at 70.5 h was -4.89%.

Turning to `CCOc1ccc(C#N)cc1NCc1cc(C)on1`, the cytotoxicity at 70.5 h turned out to be 27.9%.

Consider `CCNC(=O)N1CCC(NC(=O)NCCc2cccc(C)c2)C1` (centres undefined), for which the cytotoxicity at 70.5 h worked out at 4.49%.

For the compound `CCc1nc(Cn2c(=O)n(CC)c3ccccc32)no1`, the cytotoxicity at 70.5 h was -7.55%.

Regarding `OCc1cc2ccccc2nc1NC1CC=CC1`, the cytotoxicity at 70.5 h is -5.4%.

Turning to `Cc1nc(CN(CCS(C)(=O)=O)C(C)C)cs1`, the cytotoxicity at 70.5 h is -8.28%.

Consider `CCOCCN1CCN(Cc2nnc(-c3occc3C)o2)CC1CC` (centres undefined), for which the cytotoxicity at 70.5 h was -5.31%.

For `O=C(CN1CCOC(Cn2cccn2)C1)NC(C1CC1)C1CC1` (centres undefined), the cytotoxicity at 70.5 h is -6.99%.

For `FC(F)(F)c1cccc(N2CCC(NCc3cccnc3)CC2)c1`, the cytotoxicity at 70.5 h was 26.9%.

For the compound `CCC(SC)C(=O)N1CCC(n2cccn2)CC1` (centres undefined), the cytotoxicity at 70.5 h was -6.08%.

`CSC(C)CC(=O)N1CCC(n2ccnn2)CC1` (centres undefined): the cytotoxicity at 70.5 h was -8.7%.

Consider `COCc1ccccc1CNC(=O)CN1CCC2(CCOC2)C1` (centres undefined), for which the cytotoxicity at 70.5 h came to 25%.

For `c1cnn(-c2ccc(CCNC3CCN(C4CC4)C3)cc2)c1` (centres undefined), the cytotoxicity at 70.5 h was 0.821%.

With `CC(=O)N1CCCN(Cc2cc(F)cc(Br)c2)CC1`, the cytotoxicity at 70.5 h worked out at 21%.

For the compound `N#Cc1ccc(OCCn2cccn2)cc1`, the cytotoxicity at 70.5 h is -16.4%.

As to `CC(C)(C)CC(=O)NCC(=O)Nc1ccn(Cc2cccnc2)n1`, the cytotoxicity at 70.5 h worked out at 3.55%.

For `CN1CC(C(=O)NC2(c3ccc(Cl)cc3)CCOCC2)CC1=O` (centres undefined), the cytotoxicity at 70.5 h worked out at 2.23%.

With `CCCOc1ccc(CNCCn2cccn2)cc1`, the cytotoxicity at 70.5 h was -12.1%.

For the compound `NS(=O)(=O)CC1CCCN1CCOc1ccccc1F` (centres undefined), the cytotoxicity at 70.5 h was -12.4%.

On to `Cc1noc(C)c1CSC1CCCN(c2cnn(C)c2)C1=O` (centres undefined), for which the cytotoxicity at 70.5 h turned out to be 5.52%.

Consider `NC(=O)N1CCCN(Cc2cc(F)cc(Br)c2)CC1`, for which the cytotoxicity at 70.5 h is -8.26%.

For `COc1ccc(C(C)Nc2cnn(C)c(=O)c2Cl)cc1OC` (centres undefined), the cytotoxicity at 70.5 h is -3.5%.

Regarding `CNC(=O)CNC(=O)Nc1cc(-c2ccccc2)ns1`, the cytotoxicity at 70.5 h turned out to be 29.7%.

Regarding `CCc1n[nH]c(=O)c(C(=O)N2CCSC(C)(C)C2)c1CC`, the cytotoxicity at 70.5 h is -10.1%.

For the compound `CCc1n[nH]c(=O)c(C(=O)N2CCOC3(CCCC3)C2)c1CC`, the cytotoxicity at 70.5 h is -2.62%.

Consider `CCC(NC(=O)NCc1cccc(N(C)C)n1)c1nccs1` (centres undefined), for which the cytotoxicity at 70.5 h was found to be 32.1%.

On to `O=C(NCC1CCN(c2ccncc2)CC1)C(O)c1ccccc1` (centres undefined), for which the cytotoxicity at 70.5 h is 7.47%.

As for `COC(C)(C)CNC(=O)c1cn(-c2cccc(Cl)c2F)nn1`, the cytotoxicity at 70.5 h amounted to 4.1%.

For the compound `FC(F)CN1CCC(NCCc2ccc(-n3cccn3)cc2)CC1`, the cytotoxicity at 70.5 h is -5.54%.

Turning to `CCC(=O)N1CCCN(Cc2cc(F)cc(Br)c2)CC1`, the cytotoxicity at 70.5 h stood at 16.2%.

For the compound `CN(CC(=O)NCC(F)(F)F)Cc1nc2c(s1)CCCC2`, the cytotoxicity at 70.5 h is -9.23%.

In the case of `CN(CC(=O)NCC1CCCO1)Cc1nc2c(s1)CCCC2` (centres undefined), the cytotoxicity at 70.5 h is 25.9%.

`CN(Cc1ccc2c(c1)OCCO2)Cc1nnnn1-c1ccccc1`: the cytotoxicity at 70.5 h is -17.2%.

On to `COc1ccc(C2(NC(=O)C3CC(=O)N(C)C3)CCCC2)cc1` (centres undefined), for which the cytotoxicity at 70.5 h is 20.4%.

Consider `CC(C)n1nc2c(cc1=O)CN(CCOc1cccc(C#N)c1)CC2`, for which the cytotoxicity at 70.5 h was -8.86%.

On to `Cc1n[nH]cc1CNC1CCN(c2ccccc2)CC1`, for which the cytotoxicity at 70.5 h came to 24.8%.

Turning to `Cn1cc(CNC2CCC(O)CC2)c(-c2cc3ccccc3o2)n1` (centres undefined), the cytotoxicity at 70.5 h was -6.96%.

Consider `Cc1n[nH]cc1CNC1CCN(c2ccc(F)cc2)CC1`, for which the cytotoxicity at 70.5 h is -8.94%.

As for `COc1cccc(CNC(C)c2ccc(-n3ccnc3)cc2)c1OC` (centres undefined), the cytotoxicity at 70.5 h is -8.35%.

Consider `Cn1[nH]c(Br)c2/c(=N\CCN)ncnc1-2`, for which the cytotoxicity at 70.5 h is -7.01%.
